# Assay results as given in patent publication US10058097B2, “Methods to increase corn productivity” (Valent BioSciences Corporation, priority 2016, dated 2018).
# Assays:
# Assay type in all cases: in vivo
# corn plants = assay: Field study Colby, KS 2015, yield; settings: GA3 120 mg/liter, GB 10000 mg/liter, (S)-ABA 9 mg/liter
# Source text: In a field study conducted in Colby, Kans., corn plants were sprayed with solutions containing a non-ionic surfactant (0.25%, v/v) at 15 gallons of spray solution per acre.
# corn [1] = assay: Field study Woodstock, Ill. 2014, corn growth
# Experimental: A field study was conducted at Woodstock, Ill. in 2014. Seeds of a central corn belt hybrid with 111 days to maturity were sown on May 20, 2014. Plants were sprayed at V4 with solutions containing a non-ionic surfactant (0.25%, v/v) at 15 gallons of spray solution/acre. Growth was followed by measuring shoot height in centimeters for 60 plants in each replicate at 7 and 14 days post spraying.
# potted corn plants = assay: Chronic drought stress greenhouse study, potted corn, 14 days; settings: 20 Percent Volumetric Water Content, 120 mg/liter GA3, 3000 mg/liter GB, n = 5
# Experimental: In drought stress studies, corn plants were sprayed at the V4 stage with solutions containing a non-ionic surfactant (0.25%, v/v) at 30 gallons of spray solution/acre and growth was determined by change in height from time of treatment or fresh and dry shoot weight measurements 14 days later.
# In greenhouse drought stress studies, corn plants were treated and subsequently watered with an automated irrigation system that maintained the soil moisture in the pots at 45% or 20% volumetric water content (“VWC”). Plants set to 20% after treatment took about 4 days without the automated system adding water to those pots to reach 20% VWC and then the automated system added water as needed to maintain 20% VWC. Total soil moisture capacity was 45% VWC and 20% VWC represented drought stress conditions. This would be considered chronic stress, as a lower level of VWC was maintained throughout the experiment after treatment.
# corn [2] = assay: Nutrient stress greenhouse study, GA3 and/or GB, 7 days; settings: GA3 120 mg/liter, GB 10,000 mg/liter; for Change in Height: n = 7 plants
# Experimental: Synergy was determined using the following formula, in which a synergy factor is calculated by the Abbott method: % Cexp=A+B−(AB/100), here % Cexp is the expected efficacy and “in which A and B are the increase in growth (or resistance to stress) levels given by the single [plant growth regulators]. If the ratio between the experimentally observed efficacy of the mixture Cobs and the expected efficacy of the mixture is greater than 1, synergistic interactions are present in the mixture” (Gisi, Synergistic Interaction of Fungicides in Mixtures, The American Phytopathological Society, 86:11, 1273-1279, 1996).
# During rainy periods in March-May in the Midwestern United States, nitrogen fertilizer for corn is often limited due to a combination of leaching and mineralization. GB included with GA3 can help overcome the slow growth caused by low nutrients. In a greenhouse study in Long Grove, Ill. we evaluated the effect of GA3, GB and the combination under ‘normal nutrient’ and limited nutrient conditions.
# corn [3] = assay: Field study Woodstock, IL 2015, height, ear counts and yield
# Experimental: A field study was conducted at Woodstock, Ill. Seeds of a central corn belt variety with 103 days to maturity were sown and plants were sprayed at V5 with solutions containing a non-ionic surfactant (0.25%, v/v) at 15 gallons of spray solution/acre. Growth was followed by measuring shoot heights in centimeters 50 plants in each replicate at 7 and 13 days post-spraying. The number of kernels per kernel-row (average kernel number) as well as the number of kernel-rows (average row number) per ear was counted for 50 plants in each replicate 7 days before harvest. The harvest grain yield was corrected to 15% moisture.
# corn [4] = assay: Greenhouse study: Gibberellins, (S)-ABA and Glycine betaine on corn growth; settings: GA3 or GA4 120 mg/liter, GB 10000 mg/liter, (S)-ABA 8.8 mg/liter
# Experimental: (§1) In several of the following examples, corn was grown in greenhouse conditions, which are defined as follows. Seeds of a commercial hybrid variety were sown in Pro-Mix® BX (Pro-Mix is a registered trademark of Premier Horticulture Ltd.) with the addition of Osmocote (14-14-14) and gypsum in three-liter pots. Greenhouses were kept at 25±3° C. under a 16:8 hour photoperiod, with illumination at canopy level of ˜250 μmoles m^−2s^−1. Corn was typically fertigated with Peters 21-5-20+micronutrients, calcium ammonium nitrate and magnesium sulfate. Typical growth rates for corn under these conditions ranged from 4-5 cm/day.
# (§2) In most greenhouse studies, spray applications were made. These applications were made in a track sprayer outfitted with a 4001E Teejet® nozzle (Teejet is available from and a registered trademark of Spraying Systems Co., Glendale Heights, Ill., USA) and applied at 40 psi. Although application volumes did vary between some studies, generally, 30 gallons/acre of spray solution was applied. Following spray applications, plants were returned to the greenhouse. Typically, experiments were blocked according to plant size, and a randomized complete block design (RCB) was used.
# When gibberellins are combined with specific ratios of (S)-(+)-abscisic acid (“(S)-ABA”), a surprising enhancement of corn growth after application is often observed. The addition of GB to gibberellin+(S)-ABA spray combinations further increases the growth-promoting activity of the mixtures, as is shown in Table 6.
# hybrid corn = assay: Corn trial Arcadia, IA 2015, yield; settings: field; spray at V7; GA3 120 mg/liter, GB 10000 mg/liter, (S)-ABA 9 mg/liter
# Source text: In a corn trial conducted in Arcadia, Iowa, hybrid corn was sown Apr. 30, 2015 and sprayed at V7 with solutions containing a non-ionic surfactant (0.25%, v/v) at 15 gallons of spray volume.
# greenhouse-grown maize [5] = assay: Greenhouse study: effect of GA3 + GB dose on growth, seven days; settings: GA3 120 mg/liter, GB 0 mg/liter; spray at V3; n = 7 plants
# Experimental: as §1, §2
# In a greenhouse study, plants were sprayed at V3 stage with solutions containing a non-ionic surfactant (0.25%, v/v) at 30 gallons of spray solution/acre and growth was followed for seven days.
# greenhouse-grown maize [6] = assay: Leaf chlorophyll by SPAD meter, GA3 dose +/- GB; settings: without or with GB 10000 mg/liter
# Experimental: In the same study, leaf chlorophyll was monitored by measurements with a SPAD meter (Minolta Model 502; Ramsey, N.J.). In this study, the chlorophyll level in the most recently fully-expanded leaf was measured at five different points and the results averaged.
# [7] = field, spray at V4, GA3 120 mg/liter, GB 10,000 mg/liter
# [8] = field, spray at V5, GA3 120 mg/liter, GB 10000 mg/liter, (S)-ABA 9 mg/liter
structure (smiles),measurement,setting,value
"C=C1C[C@]23C[C@@]1(O)CC[C@H]2[C@@]12C=C[C@H](O)[C@@](C)(C(=O)O1)[C@H]2[C@@H]3C(=O)O [GA3, gibberellic acid]",Yield,corn plants,188.9 bu/acre
same,Growth Rate from 7-14 days,corn [1]; [7],4.89 cm/day
same,Height at 7 days post spray,corn [1]; [7],68.2 centimeters
same,Height at 14 days post spray,corn [1]; [7],102.4 centimeters
same,growth increase over the control plants (surfactant alone),corn [1]; one week after treatment application,6.9%
same,Percent Dry Weight of Drought Stressed Control,potted corn plants,103.32%
same,Percent Fresh Weight of Drought Stressed Control,potted corn plants,106.11%
same,Dry Weight,corn [2]; Low Nutrients,2.50 g
same,Leaf Area (L1-L6),corn [2]; Low Nutrients,588.66 cm^2
same,Change in Height,corn [2]; Low Nutrients,30.34 cm
same,Dry Weight,corn [2]; Normal Nutrients,2.86 g
same,Leaf Area (L1-L6),corn [2]; Normal Nutrients,629.45 cm^2
same,Change in Height,corn [2]; Normal Nutrients,38.83 cm
same,Average row number per ear,corn [3]; counted 7 days before harvest,16.8
same,Height at 7 days post spray,corn [3]; [8],69.6 cm
same,Height at 13 days post spray,corn [3]; [8],88.6 cm
same,Yield,corn [3]; grain yield corrected to 15% moisture,222.8 bu/acre
same,7 days Change in Height,corn [4],32.5 cm
same,14 days Change in Height,corn [4],62.8 cm
same,Dry Weight,corn [4],8.1 g
same,Yield,hybrid corn,185.8 bu/acre
same,Growth Rate,greenhouse-grown maize [5],4.86 cm/day
same,Plant Growth over 7 days,greenhouse-grown maize [5],34.01 cm
same,Chlorophyll (SPAD reading) 14 days,greenhouse-grown maize [6]; GA3 30 mg/liter,33.1 SPAD reading
same,Chlorophyll (SPAD reading) 14 days,greenhouse-grown maize [6]; GA3 60 mg/liter,32.9 SPAD reading
same,Chlorophyll (SPAD reading) 14 days,greenhouse-grown maize [6]; GA3 120 mg/liter,31.6 SPAD reading
same,Chlorophyll (SPAD reading) 14 days,greenhouse-grown maize [6]; GA3 240 mg/liter,31.1 SPAD reading
